Reference: patent publication US8841233B2, “Herbicidal compositions comprising 4-amino-3-chloro-5-fluoro-6-(4-chloro-2-fluoro-3-methoxyphenyl) pyridine-2-carboxylic acid or a derivative thereof and 4-hydroxyphenyl-pyruvate dioxygenase (HPPD) inhibitors” (Dow Agrosciences LLC, priority 2012, dated 2014)

How the values were obtained:
Assay in all cases: Pre-emergence soil-applied weed control, greenhouse (Example III)
IPOHE = format: in vivo, Ipomoea hederacea (L.) Jacq.; conditions: 35 gai/ha
Excerpt: (§1) Evaluation of Pre-emergence Soil-Applied Herbicidal Mixtures for Weed Control
(§2) Seeds or nutlets of the desired test plant species were planted in a soil matrix prepared by mixing a loam soil (32 percent silt, 23 percent clay, and 45 percent sand, with a pH of about 6.5 and an organic matter content of about 1.9 percent) and calcareous grit in an 80 to 20 ratio. The soil matrix was contained in plastic pots with a volume of 1 quart and a surface area of 83.6 square centimeters (cm^2).
(§3) Treatments consisted of the benzyl ester of 4-amino-3-chloro-5-fluoro-6-(4-chloro-2-fluoro-3-methoxy-phenyl)pyridine-2-carboxylic acid (compound A) formulated as an SC (suspension concentrate) and various herbicidal components alone and in combination. Forms of compound A were applied on an acid equivalent basis.
(§4) Other herbicidal components were applied on an acid equivalent or active ingredient basis and included the 4-hydroxyphenyl pyruvate dioxygenase (HPPD)-inhibiting herbicide, isoxaflutole, formulated as Balance Pro®.
(§5) Treatment requirements were calculated based upon the rates being tested, the concentration of active ingredient or acid equivalent in the formulation, and a 12 mL application volume at a rate of 187 L/ha.
(§6) For treatments comprised of formulated compounds, measured amounts of compounds were placed individually in 25 mL glass vials and diluted in a volume of 1.25% (v/v) Agri-Dex® crop oil concentrate (COC) to obtain 12× stock solutions. […] Application solutions were prepared by adding an appropriate amount of each stock solution (e.g., 1 mL) and diluted to the appropriate final concentrations with the addition of 10 mL of an aqueous mixture of 1.25% (v/v) COC so that the final spray solutions contained 1.25% (v/v) COC.
(§7) All stock solutions and applications solutions were visually inspected for compound compatibility prior to application. Spray solutions were applied to the soil with an overhead Mandel track sprayer equipped with a 8002E nozzles calibrated to deliver 187 L/ha over an application area of 0.503 m^2 at a spray height of 18 inches (46 cm) above average pot height. Control pots were sprayed in the same manner with the solvent blank.
(§8) The treated and control pots were placed in a greenhouse and top watered as needed. When required to ensure good germination and healthy plants, a fungicide treatment and/or other chemical or physical treatment was applied. […] After approximately 4 weeks, the condition of the test plants as compared with that of the untreated plants was determined visually and scored on a scale of 0 to 100 percent where 0 corresponds to no injury or growth inhibition and 100 corresponds to complete kill. […]

XANST = format: in vivo, Xanthium strumarium L.; conditions: 35 gai/ha
Excerpt: as §1, §2, §3, §4, §5, §6, §7, §8

SETVI = format: in vivo, Setaria viridis (L.) Beauv.
Excerpt: as §1, §2, §3, §4, §5, §6, §7, §8

Structure (SMILES): CS(=O)(=O)c1cc(C(F)(F)F)ccc1C(=O)c1cnoc1C1CC1 [Isoxaflutole, (5-cyclopropyl-4-isoxazolyl)[2-(methylsulfonyl)-4-(trifluoromethyl)phenyl]methanone, reference compound]
- Visual Weed Control (%) - 32 DAA IPOHE Obs (IPOHE): 43%
- Visual Weed Control (%) - 32 DAA XANST Obs (XANST): 75%
- Visual Weed Control (%) - 32 DAA SETVI Obs (SETVI; 35 gai/ha): 50%
- Visual Weed Control (%) - 32 DAA SETVI Obs (SETVI; 70 gai/ha): 93%
